Converted amounts (≈) assume the structure as drawn.
Assays:
[1] = target: T1, Carnitine O-palmitoyltransferase 2, mitochondrial (Rattus norvegicus, UniProt P18886); assay: (§1) SUPPLEMENTARY: Inhibition of Carnitine palmitoyltransferase 2
T1 sequence (P18886 whole entry): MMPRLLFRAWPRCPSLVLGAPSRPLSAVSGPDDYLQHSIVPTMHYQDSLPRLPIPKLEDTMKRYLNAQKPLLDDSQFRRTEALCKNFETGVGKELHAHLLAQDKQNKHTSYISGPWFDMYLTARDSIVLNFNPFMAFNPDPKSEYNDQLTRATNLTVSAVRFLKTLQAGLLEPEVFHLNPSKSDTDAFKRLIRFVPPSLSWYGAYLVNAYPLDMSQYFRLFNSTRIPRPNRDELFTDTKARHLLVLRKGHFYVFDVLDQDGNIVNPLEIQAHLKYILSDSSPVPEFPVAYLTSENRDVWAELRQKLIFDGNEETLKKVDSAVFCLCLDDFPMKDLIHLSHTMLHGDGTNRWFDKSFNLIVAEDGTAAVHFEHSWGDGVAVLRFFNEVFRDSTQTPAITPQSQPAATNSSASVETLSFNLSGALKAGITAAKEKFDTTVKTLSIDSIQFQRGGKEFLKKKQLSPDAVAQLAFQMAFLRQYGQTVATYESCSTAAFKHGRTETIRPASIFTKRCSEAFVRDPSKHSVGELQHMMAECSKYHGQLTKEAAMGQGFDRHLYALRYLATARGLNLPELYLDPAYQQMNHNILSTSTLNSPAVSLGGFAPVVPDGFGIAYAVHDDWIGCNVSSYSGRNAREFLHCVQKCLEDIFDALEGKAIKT

[2] = target: T2, Carnitine O-palmitoyltransferase 2, mitochondrial (Homo sapiens, UniProt P23786); assay: as §1
T2 sequence (P23786 whole entry): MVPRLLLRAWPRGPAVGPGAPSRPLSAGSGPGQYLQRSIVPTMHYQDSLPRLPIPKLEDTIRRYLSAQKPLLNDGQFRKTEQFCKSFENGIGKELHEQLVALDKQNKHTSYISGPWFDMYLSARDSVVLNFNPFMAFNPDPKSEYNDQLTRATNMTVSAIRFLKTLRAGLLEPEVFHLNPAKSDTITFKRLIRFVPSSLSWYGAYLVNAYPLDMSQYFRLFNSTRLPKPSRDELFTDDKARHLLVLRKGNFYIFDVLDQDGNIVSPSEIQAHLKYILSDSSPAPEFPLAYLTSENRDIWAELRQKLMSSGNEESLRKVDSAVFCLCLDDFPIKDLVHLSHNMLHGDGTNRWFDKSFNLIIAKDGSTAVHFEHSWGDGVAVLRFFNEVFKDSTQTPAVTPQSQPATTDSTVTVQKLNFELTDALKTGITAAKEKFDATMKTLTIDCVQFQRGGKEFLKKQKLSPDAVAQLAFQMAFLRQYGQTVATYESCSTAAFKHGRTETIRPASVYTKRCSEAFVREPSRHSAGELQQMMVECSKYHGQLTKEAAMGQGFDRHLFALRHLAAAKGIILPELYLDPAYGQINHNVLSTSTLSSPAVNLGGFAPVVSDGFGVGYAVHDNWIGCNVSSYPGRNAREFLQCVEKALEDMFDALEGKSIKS

[3] = SUPPLEMENTARY: Lyophilisation Solubility Assay (LYSA); format: physicochemical; details: read-out: Kinetic_solubility
[4] = SUPPLEMENTARY: Lipophilicity (log D) Determination by high-throughput shake-flask; format: physicochemical; details: octanol/water
[5] = target: T3, Carnitine O-palmitoyltransferase 1, liver isoform (Homo sapiens, UniProt P50416); assay: (§2) SUPPLEMENTARY: Inhibition of Carnitine palmitoyltransferase 1, liver isoform
T3 sequence (P50416 whole entry): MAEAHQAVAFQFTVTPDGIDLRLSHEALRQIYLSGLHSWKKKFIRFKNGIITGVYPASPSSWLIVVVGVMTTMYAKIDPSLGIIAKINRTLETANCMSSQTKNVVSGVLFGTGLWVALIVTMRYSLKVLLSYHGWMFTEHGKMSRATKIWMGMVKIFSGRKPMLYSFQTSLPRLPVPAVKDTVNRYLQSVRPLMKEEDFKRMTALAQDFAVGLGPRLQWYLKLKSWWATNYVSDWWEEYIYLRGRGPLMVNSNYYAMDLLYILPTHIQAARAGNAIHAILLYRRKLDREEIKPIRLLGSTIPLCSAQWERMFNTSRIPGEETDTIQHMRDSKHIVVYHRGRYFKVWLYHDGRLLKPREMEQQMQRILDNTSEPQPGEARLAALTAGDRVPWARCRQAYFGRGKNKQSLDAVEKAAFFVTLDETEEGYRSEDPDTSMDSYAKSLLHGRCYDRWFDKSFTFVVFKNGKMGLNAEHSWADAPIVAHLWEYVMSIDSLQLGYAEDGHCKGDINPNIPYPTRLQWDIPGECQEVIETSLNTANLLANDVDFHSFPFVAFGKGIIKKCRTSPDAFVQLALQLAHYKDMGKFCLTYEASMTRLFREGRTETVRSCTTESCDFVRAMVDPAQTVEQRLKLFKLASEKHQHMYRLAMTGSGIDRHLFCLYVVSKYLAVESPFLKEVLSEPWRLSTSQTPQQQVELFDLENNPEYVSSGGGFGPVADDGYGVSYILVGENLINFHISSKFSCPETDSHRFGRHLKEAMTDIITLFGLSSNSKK

[6] = target: T4, Carnitine O-palmitoyltransferase 1, liver isoform (Rattus norvegicus, UniProt P32198); assay: as §2
T4 sequence (P32198 whole entry): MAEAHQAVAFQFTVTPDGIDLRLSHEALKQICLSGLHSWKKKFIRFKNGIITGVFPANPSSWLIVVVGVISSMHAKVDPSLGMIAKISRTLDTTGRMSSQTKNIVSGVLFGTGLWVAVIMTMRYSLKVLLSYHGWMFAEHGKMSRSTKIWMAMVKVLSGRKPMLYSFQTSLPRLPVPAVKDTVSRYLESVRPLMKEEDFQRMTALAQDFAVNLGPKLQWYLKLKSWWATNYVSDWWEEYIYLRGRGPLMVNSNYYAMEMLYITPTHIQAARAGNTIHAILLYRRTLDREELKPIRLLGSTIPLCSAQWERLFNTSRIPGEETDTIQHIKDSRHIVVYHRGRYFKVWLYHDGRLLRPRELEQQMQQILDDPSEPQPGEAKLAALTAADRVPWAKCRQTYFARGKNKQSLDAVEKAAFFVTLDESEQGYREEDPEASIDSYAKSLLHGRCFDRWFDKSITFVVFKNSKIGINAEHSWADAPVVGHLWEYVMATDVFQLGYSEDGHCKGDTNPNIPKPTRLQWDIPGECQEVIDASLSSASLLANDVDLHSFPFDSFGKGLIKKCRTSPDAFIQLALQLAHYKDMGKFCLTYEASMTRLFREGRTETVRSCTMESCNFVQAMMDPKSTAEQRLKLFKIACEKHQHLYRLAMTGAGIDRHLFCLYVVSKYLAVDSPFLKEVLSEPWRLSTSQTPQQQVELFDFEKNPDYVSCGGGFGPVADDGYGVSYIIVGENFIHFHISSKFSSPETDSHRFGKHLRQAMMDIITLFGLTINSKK

[7] = target: T5, Carnitine O-palmitoyltransferase 1, muscle isoform (Homo sapiens, UniProt Q92523); assay: SUPPLEMENTARY: Inhibition of Carnitine palmitoyltransferase 1, muscle isoform; parameters: species or system Muscle tissue
T5 sequence (Q92523 whole entry): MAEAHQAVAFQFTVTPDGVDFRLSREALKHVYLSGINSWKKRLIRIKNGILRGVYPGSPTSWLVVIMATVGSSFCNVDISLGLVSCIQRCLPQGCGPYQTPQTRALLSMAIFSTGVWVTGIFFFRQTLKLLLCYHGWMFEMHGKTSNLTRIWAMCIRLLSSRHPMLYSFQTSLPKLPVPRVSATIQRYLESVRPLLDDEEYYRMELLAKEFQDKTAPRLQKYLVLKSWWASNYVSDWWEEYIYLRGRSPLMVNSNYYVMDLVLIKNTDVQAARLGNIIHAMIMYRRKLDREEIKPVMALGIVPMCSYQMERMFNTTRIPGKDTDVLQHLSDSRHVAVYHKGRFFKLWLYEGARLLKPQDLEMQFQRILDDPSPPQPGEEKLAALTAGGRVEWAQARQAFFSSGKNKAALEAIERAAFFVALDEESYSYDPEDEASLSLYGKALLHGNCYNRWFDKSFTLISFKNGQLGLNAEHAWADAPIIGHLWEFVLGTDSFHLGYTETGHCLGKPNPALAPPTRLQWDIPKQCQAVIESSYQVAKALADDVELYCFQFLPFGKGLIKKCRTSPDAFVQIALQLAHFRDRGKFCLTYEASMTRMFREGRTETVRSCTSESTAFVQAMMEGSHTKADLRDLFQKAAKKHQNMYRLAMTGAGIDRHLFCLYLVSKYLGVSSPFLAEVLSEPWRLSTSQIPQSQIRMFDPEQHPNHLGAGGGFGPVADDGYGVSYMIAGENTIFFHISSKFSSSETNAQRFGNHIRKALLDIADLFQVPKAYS

[8] = SUPPLEMENTARY: PAMPA permeability assay; format: physicochemical; details: read-out: Permeability

SMILES	IC50 [1] [nM]	IC50 [2] [nM]	solubility kinetic [3] [µg/mL]	logD [4]	IC50 [5] [nM]	IC50 [6] [nM]	IC50 [7] [nM]	Papp [8] [×10⁻⁶ cm/s]
O=C(O)c1ccc(NC(=O)c2ccc3c(c2)N(S(=O)(=O)c2cccc(Cl)c2)CCS3)cc1	5640	1950	20 (≈ 40.9 µM)	1.48	82.2	43	7330	2.81
O=C(O)c1ccc(NC(=O)c2ccc3c(c2)N(S(=O)(=O)c2cccc(Cl)c2)CC[S+]3[O-])cc1 (stereo not given)	> 100000	> 100000	3 (≈ 5.94 µM)	-0.14	130	95.5	52200	0.28
Cc1cc(C)cc(S(=O)(=O)N2CC[S+]([O-])c3ccc(C(=O)Nc4ccc(C(=O)O)cc4)cc32)c1 (stereo not given)	> 100000	1860	2 (≈ 4.01 µM)	0.1	59.8	57.5	37000	0.49
COc1ccc(Cl)cc1CN1C(=O)C2(CC2)c2ccc(C(=O)Nc3nc(CC(=O)O)cs3)cc21	> 100000	> 100000	48 (≈ 96.4 µM)	2.7	91.1	34.8	2760	1.03
COc1ccc(Cl)cc1S(=O)(=O)Nc1cc(C(=O)Nc2ccccc2)ccc1CCC(=O)O	> 100000	> 100000	440 (≈ 900 µM)	0.47	53.7	54.2	46800	2.38
O=C([C@H]1CCCCN1C(=O)COc1ccccc1)N1Cc2cc(F)c(OC3CCOCC3)cc2C1	1310	507	37 (≈ 76.7 µM)	2.45	210	76.8	> 100000	3.57
O=C([C@H]1CCCCN1C(=O)COc1ccccc1)N1Cc2cc(F)c(N3CCOCC3)cc2C1	2010	540	70 (≈ 150 µM)	2.01	229	106	> 100000	8.31
O=C([C@H]1CCCCN1C(=O)COc1ccccc1)N1Cc2ccc(O[C@@H]3CCOC3)cc2C1	1410	489	81 (≈ 180 µM)	2.58	63.6	41.6	> 100000	11.5
COc1ccc(Cl)cc1S(=O)(=O)c1cn(CCC(=O)O)c2ccc(C(=O)Nc3ccccc3)cc12	> 100000	> 100000	251 (≈ 489 µM)	0.56	7.1	3	9020	0.39
COc1ccc(Cl)cc1CN(C(=O)C(C)C)c1cc(C(=O)Nc2nc(CC(=O)O)cs2)ccc1Cl	> 100000	> 100000	438 (≈ 816 µM)	1.34	236	440	2560	3.2
